Results: ChEMBL document CHEMBL3792339, “Identification of new quinic acid derivatives as histone deacetylase inhibitors by fluorescence-based cellular assay” (Bioorg Med Chem Lett, 2016)
Active and inactive are the calls of the source. The calls are words filed in the database; no cut-off is given here.

What was measured:
[1] = tested on: C127-LT; experiment: Inhibition of HDAC in mouse C127-LT cells assessed as activation of EGFP expression at 10 uM after 24 hrs by fluorescence microscopy; format: cell-based
[2] = tested on: C127-LT; experiment: Inhibition of HDAC in mouse C127-LT cells assessed as activation of EGFP expression at 200 nM after 24 hrs by fluorescence microscopy; format: cell-based
[3] = tested on: C127-LT; experiment: Inhibition of HDAC in mouse C127-LT cells assessed as activation of EGFP expression at 1 uM after 24 hrs by fluorescence microscopy; format: cell-based
[4] = biological target: Histone deacetylase; experiment: Inhibition of HDAC in human HeLa cells using Boc-Lys(AC)-AMC as substrate after 24 to 48 hrs by spectrofluorometry; format: cell-based
[5] = biological target: Histone deacetylase; experiment: Inhibition of HDAC in human HeLa nuclear extract using fluor de lys as substrate after 10 to 15 mins by spectrofluorometry; format: protein assay
[6] = biological target: T1, Histone deacetylase (Homo sapiens) (UniProt Q13547+O15379+Q9UBN7+Q92769+Q9UQL6+Q8WUI4+Q9BY41+Q96DB2+P56524+Q9UKV0+Q969S8); experiment: Inhibition of HDAC in human HeLa nuclear extract assessed as accumulation of acetylated histone H3 at 0.1 to 100 uM after 24 hrs by western blot analysis; format: protein assay
[7] = biological target: T1, Histone deacetylase (Homo sapiens); conditions: at 10 to 25 µM
Description: Competitive inhibition of HDAC in human HeLa nuclear cells at 10 to 25 uM using Boc-acetyl-lysine-AMC as substrate after 30 mins by Lineweaver-Burk plot analysis

In the case of `COc1cc(-c2oc3cc(O)cc(O)c3c(=O)c2O[C@@H]2O[C@H](CO[C@@H]3O[C@@H](C)[C@H](O)[C@@H](O)[C@H]3O)[C@@H](O)[C@H](O)[C@H]2O)ccc1O`, the inhibition [1] is reported as “Active”.
In the case of `CC(/C=C/C(=O)NO)=C\[C@@H](C)C(=O)c1ccc(N(C)C)cc1`, the inhibition [2] is reported as “Active”.
`C=C(CO)C(=O)O[C@H]1CC(=C)[C@@H]2C[C@H](O)C(=C)[C@@H]2[C@H]2OC(=O)C(=C)[C@@H]21` was tested, and the inhibition [1] was “inactive”.
In the case of `Nc1ccccc1NC(=O)c1ccc(CNC(=O)OCc2cccnc2)cc1`, the inhibition [3] is reported as “Active” and the inhibition [1] is reported as “Active”.
For `C=C1[C@@H]2[C@H]3OC(=O)[C@@H](CN[C@@H](Cc4c[nH]c5ccccc45)C(=O)O)[C@@H]3[C@@H](O)CC(=C)[C@@H]2C[C@@H]1O`, the inhibition [1] was “inactive”.
`COc1cc2c(cc1OC)[C@@H]1Cc3ccc(O)c(O)c3CN1CC2` was tested, and the inhibition [1] was “Active”.
With `C=C1[C@@H]2[C@H]3OC(=O)[C@@H](CN4CCC[C@H]4C(=O)O)[C@@H]3[C@@H](OC(=O)C(C)(O)CO)CC(=C)[C@@H]2C[C@@H]1O` (some centres undefined) the inhibition [1] was “inactive”.
For `C=C1[C@@H]2[C@H]3OC(=O)[C@@H](CN[C@H](C(=O)O)C(C)C)[C@@H]3[C@@H](O)CC(=C)[C@@H]2C[C@@H]1O`, the inhibition [1] was “inactive”.
In the case of `C=C1C(=O)O[C@@H]2[C@H]3C(=C)[C@@H](O)C[C@H]3C(=C)C[C@H](OC(=O)C(C)(O)CO)[C@@H]12` (some centres undefined), the inhibition [1] is reported as “inactive”.
For `C=C1C(=O)O[C@@H]2[C@H]3C(=C)[C@@H](O)C[C@H]3C(=C)C[C@H](OC(=O)CC(C)(C)O)[C@@H]12`, the inhibition [1] was “inactive”.
`COc1ccc2cc3[n+](cc2c1OC)CCc1cc2c(cc1-3)OCO2` was tested, and the inhibition [1] was “Active”.
For `O=C(/C=C/c1ccc(O)c(O)c1)O[C@@H]1C[C@](O)(C(=O)O)C[C@@H](OC(=O)/C=C/c2ccc(O)c(O)c2)[C@H]1O`, the IC50 [4] was greater than 500 µM, the IC50 [5] was 143.24 µM and the inhibition [1] was “inactive”.
With `CC(=O)OCCc1ccc(O)c(O)c1` the inhibition [1] was “Active”.
For `COc1cc2c3c(cc4ccccc4c3c1O)NC2=O`, the inhibition [1] was “inactive”.
In the case of `O=C(/C=C/c1ccc(O)c(O)c1)O[C@@H]1C[C@@](O)(C(=O)O)C[C@@H](O)[C@@H]1O`, the IC50 [4] is reported as greater than 200 µM, the IC50 [5] is reported as 170.4 µM and the inhibition [1] is reported as “inactive”.
In the case of `COC(=O)[C@]1(O)C[C@@H](OC(=O)/C=C/c2ccc(O)c(O)c2)[C@@H](O)[C@H](OC(=O)/C=C/c2ccc(O)c(O)c2)C1`, the IC50 [4] is reported as 7.59 µM, the IC50 [5] is reported as 4.99 µM and the inhibition [6] is reported as “Active”. For the same compound, the inhibition [1] was “Active” and the inhibition [7] was “Active”.
In the case of `O=C(/C=C/c1ccc(O)c(O)c1)O[C@@H]1C[C@](O)(C(=O)O)C[C@@H](O)[C@H]1O` [CHLOROGENIC ACID], the IC50 [4] is reported as greater than 200 µM, the IC50 [5] is reported as greater than 200 µM and the inhibition [1] is reported as “inactive”.
In the case of `C=C1CC[C@@H]2[C@](C)(CCC[C@]2(C)C(=O)O)[C@H]1CCC1=CC(OCCCC)OC1=O` (some centres undefined), the inhibition [1] is reported as “inactive”.
